Test results reported in patent US4743616A, “Novel biologically active compound having anti-prolyl endopeptidase activity” (Suntory Limited, priority 1984, dated 1988).

Columns and labels:
prolyl endopeptidase = experiment: Measurement of anti-prolyl endopeptidase activity; format: biochemical; details: substrate Z-glycyl-proline-β-naphthylamide, phosphate buffer pH 7.0, absorbance at 410 nm
Description: The method of Yoshimoto and Tsuru (T. Yoshimoto and D. Tsuru, Agr. Biol. Chem. 42, 2417, 1978) was used to measure the anti-prolyl endopeptidase activities of several compounds of the present invention. A mixture of 0.0025M Z-glycyl-proline-β-naphthylamide (0.25 ml), 0.1M phosphate buffer (pH, 7.0; 0.99 ml) and a solution of a particular anti-prolyl endopeptidase compound (0.01 ml) was incubated in a test tube at 37° C. for 3 minutes. Thereafter, 0.1 ml of a solution of prolyl endopeptidase (0.2 U/ml) was added and the mixture was heated at 35° C. for 10 minutes. After the reaction, 2.0 ml of Triton X-100 in 1M acetate buffer (pH, 4.0 ) was added to the reaction mixture until the final concentration of the surfactant was 10%. The mixture was left at room temperature for 15 minutes and the absorance (a) at 410 nm was measured.
A sample for blind test was prepared by using the buffer instead of the anti-prolyl endopeptidase compound and its absorbance (b) was also measured. The percent inhibition of prolyl endopeptidase was calculated by the formula: ((b-a)/b)×100, and the amount of a specific compound to achieve 50% inhibition (IC50) was determined.

[1] = test system: experimental amnesia caused in rats by scopolamine; experiment: Preventive effect against experimental amnesia caused in rats by scopolamine (intraperitoneal administration); format: in vivo, Wister male rats; details: for No. of amnesic rats/No. of rats tested / Percentage amnesia: scopolamine 3 mg/kg i.p., assessed 24 and 48 hours after scopolamine
Description: (§1) Several of the anti-prolyl endopeptidase compounds of the present invention were checked for their ability to prevent the inhibition of long-term memory fixation by scopolamine. Solutions of physiological saline that contained selected compounds of the present inventions in varying amounts (20 mg, 2 mg, 0.2 mg and 0.02 mg/kg) were administered intraperitoneally once a day to Wister male rats (100-120 g). One hour after the administration, electric shocks were applied to the rats so that they would acquire passive avoidance learning. Immediately thereafter, scopolamine was administered intraperitoneally to each rat in an amount of 3 mg per kg of body weight.
(§2) The result of the test was assessed both 24 hours and 48 hours after the administration of scopolamine. The number of amnesic rats and that of sound rats were counted for each of the control group (rats which were not administered the test compounds but administered intraperitoneally only scopolamine and physiological saline) and the treated group (rats which were administered both the test compound and scopolamine).

[2] = Acute toxicity test in mice; details: mouse, in vivo, ip; single i.p. administration in DMSO/physiological saline, five mice per group, observed at 24 and 48 hours; read-out: Average dose (mg/kg) at which the group remained sound and showed no sign of intoxication
Description: The compounds of the present invention were checked for their acute toxicity in CDF-1 strain male mice (body weight: 27.2-30.1 g) purchased from Awazu Laboratory Animals Co., Ltd.
Test samples were prepared by dissolving the respective compounds in DMSO, and mixing with an equal amount of physiological saline. A portion (0.1 ml) of the so conditioned test sample was administered intraperitoneally to each of the mice used. Each of the tested groups consisted of five mice. At 24 and 48 hours of the administration, the mice were observed.

[3] = test system: experimental amnesia caused in rats by scopolamine; experiment: Preventive effect against experimental amnesia caused in rats by scopolamine (oral administration); format: in vivo; details: for No. of amnesic rats/No. of rats tested / Percentage amnesia: scopolamine 3 mg/kg i.p.
Description: as §1, §2
Varying amounts (1, 5, 25 and 100 mg/kg) of the compound were administered orally to each of the rats and tested for its anti-amnesic effects by the same procedures as used in Example 9.

Structure (SMILES) | IC50 (μg/test tube) (prolyl endopeptidase) | No. of amnesic rats/No. of rats tested ([1]; 0.2 mg/kg i.p.) | Percentage amnesia ([1]; 0.2 mg/kg i.p.) | No. of amnesic rats/No. of rats tested ([1]; 2 mg/kg i.p.) | Percentage amnesia ([1]; 2 mg/kg i.p.) | NOAEL at 48 h [2] | No. of amnesic rats/No. of rats tested ([1]; 20 mg/kg i.p.) | Percentage amnesia ([1]; 20 mg/kg i.p.) | No. of amnesic rats/No. of rats tested ([1]; 0.02 mg/kg i.p.) | Percentage amnesia ([1]; 0.02 mg/kg i.p.) | effect in preventing amnesia (in words) ([1]; i.p. administration, Example 9) | No. of amnesic rats/No. of rats tested ([3]; 1 mg/kg p.o.) | Percentage amnesia ([3]; 1 mg/kg p.o.) | No. of amnesic rats/No. of rats tested ([3]; 5 mg/kg p.o.) | Percentage amnesia ([3]; 5 mg/kg p.o.) | No. of amnesic rats/No. of rats tested ([3]; 25 mg/kg p.o.) | Percentage amnesia ([3]; 25 mg/kg p.o.) | No. of amnesic rats/No. of rats tested ([3]; 100 mg/kg p.o.) | Percentage amnesia ([3]; 100 mg/kg p.o.) | oral amount giving the strongest anti-amnesic action ([3]; of 1, 5, 25 and 100 mg/kg administered orally to rats)
O=CC1CCCN1C(=O)Cc1ccccc1 (stereo not shown) [Compound No. 1] | 0.8 μg/test tube | 7/10 | 70% | 3/10 | 30% | 535 mg/kg |  |  |  |  |  |  |  |  |  |  |  |  |  | 
COC(=O)[C@@H]1CCCN1C(=O)Cc1ccccc1 [Compound No. 2, N-phenylacetyl-proline methyl ester] | 200 μg/test tube |  |  |  |  | 535 mg/kg | 7/10 | 70% |  |  |  |  |  |  |  |  |  |  |  | 
O=CC1CCCN1C(=O)CCc1ccccc1 (stereo not shown) [Compound No. 3, N-(3-phenylpropionyl)-prolinal] | 0.018 μg/test tube | 4/15 | 27% | 4/15 | 27% | 543 mg/kg |  |  | 7/15 | 47% |  |  |  |  |  |  |  |  |  | 
COC(=O)[C@@H]1CCCN1C(=O)CCc1ccccc1 [Compound No. 4, N-(3-phenylpropionyl)-proline methyl ester] | 60 μg/test tube |  |  | 8/10 | 80% | 542 mg/kg | 4/10 | 40% |  |  |  |  |  |  |  |  |  |  |  | 
O=CC1CCCN1C(=O)CCCc1ccccc1 (stereo not shown) [Compound No. 5] | 0.006 μg/test tube | 2/15 | 13% | 3/15 | 20% | 534 mg/kg |  |  | 4/15 | 27% | particularly effective in preventing amnesia | 4/10 | 40% | 1/10 | 10% | 3/10 | 30% | 8/10 | 80% | 5 mg/kg
COC(=O)C1CCCN1C(=O)CCCc1ccccc1 (stereo not shown) [Compound No. 6, N-(4-phenyl-n-butyryl)-proline methyl ester] | 25 μg/test tube | 5/10 | 50% | 3/10 | 30% | 536 mg/kg |  |  |  |  |  |  |  |  |  |  |  |  |  | 
O=CC1CCCN1C(=O)CCCCCc1ccccc1 (stereo not shown) [Sample prepared in Example 7, N-(6-phenyl-n-caproyl)-prolinal] | 0.35 μg/test tube |  |  |  |  |  |  |  |  |  |  |  |  |  |  |  |  |  |  | 
